According to patent US5853699A, “Use of tetra azacycle complexes as x-ray diagnostic agents for the liver and gallbladder” (priority 1995, dated 1998):
Values joined by “and” are separate entries in the source; they are usually repeats but may differ in a detail not shown here. Equal values may be shown once. Read-outs that look alike come from different tables or passages of the source. One block for each compound: values may come before it.

Legend:
[1] = density values of samples measured in a water phantom in a computer tomograph (137 kV, 100 mA); assay type: physicochemical
Procedure: 3,6,9-Triaza-3,6,9-tris-(carboxymethyl)-4-(4-ethoxybenzyl)-undecanedioic acid
Disodium salt was complexed with different X-ray-absorbing metal ions and then in the case of differing concentration, the density values of the samples were measured in a water phantom since it approximately corresponded in dimensions to those of a human abdomen.

mice = assay: acute toxicity (LD50) after one-time intravenous administration to mice; assay type: in vivo, mouse (NMRI (SPF)); settings: mice (NMRI), 2 ml/minutes, deaths up to 7 days
Procedure: Study of acute toxicity (LD50) after one-time intravenous administration to mice
The contrast medium to be tested was administered to the mice in individual restraining cages (strain: NMRI (SPF); cultivator: Schering; average weight: 20 g; same sex distribution) into one of the caudal veins at a rate of 2 ml/minutes and at different dosage levels. The number of animals that died up to a fixed time was determined (3 hours, 24 hours, 3 days and 7 days).

healthy liver parenchyma = assay: density enhancement of the healthy liver parenchyma in CT after infusion, patients with liver metastases (Example 16); assay type: in vivo, human; settings: 0.35 mmol/kg, 0.25 molar solution, individual patients 1-5 (one line per patient), disodium salt
Procedure: Density enhancement of the healthy liver parenchyma 10 and 60 minutes after infusion of a 0.25 molar solution of the gadolinium(III) complex of the 3,6,9-triaza-3,6,9-tris(carboxymethyl)-4-(4-ethoxybenzyl)-undecanedioic acid disodium salt (Gd-EOB-DTPA, described in Example 8c of EP 0405704) in the case of 5 human patients with liver metastases in a dose of 0.35 mmol/kg in Houndsfield units (HU). This dose corresponds to about 16 g of the complex per 70 kg of patient.

liver metastases = assay: liver CT of human patients with known liver metastases (Example 19); assay type: in vivo
Procedure: Gd-EOB-DTPA ([…]) was administered intravenously in an intravenous drip in the arm vein. The infusion time was 20 minutes for the dosages of 0.2 and 0.35 mmol/kg and 30 minutes for the maximum dose of 0.5 mmol/kg. […] Exclusion criteria for the patients were: […] The entire liver was measured within 20-30 seconds of a pause in breathing. The table feed rate was 8 mm/sec, the collimation 8 mm. Using a basis of pre-contrast and post-contrast images, two independent observers evaluated the number and size of the metastases qualitatively (excellent, good, moderate, minimal, no improvement) and quantitatively (measurement of the Houndsfield units).

[2] = compatibility (overall condition, vital parameters, laboratory analysis of serum and urine) in patients (Example 19); assay type: in vivo, human
Procedure: Fifteen human patients with known liver metastases were examined in the liver-CT 10 minutes, 60 minutes and (N=5) 120 minutes after intravenous infusion of 0.2, 0.35 or 0.5 mmol/kg of Gd-EOB-DTPA (see Example 16).
Gd-EOB-DTPA ([…]) was administered intravenously in an intravenous drip in the arm vein. The infusion time was 20 minutes for the dosages of 0.2 and 0.35 mmol/kg and 30 minutes for the maximum dose of 0.5 mmol/kg.
The compatibility of Gd-EOB-DTPA was determined by determining the overall condition, the recording of vital parameters and a laboratory analysis of serum and urine parameters.

liver [3] = settings: human, dose corresponding to 360 mg of iodine/kg; cited from earlier work
liver [4] = settings: monkey; cited from earlier work
liver [5] = settings: dog; cited from earlier work
liver [6] = settings: mouse; cited from earlier work
liver [7] = settings: cited from earlier work; for concentration in the liver (fold), at 50 μg of iodine/ml: 50 μg of iodine/ml of plasma; for concentration in the liver versus plasma, at 500 μg of iodine/ml: 500 μg of iodine/ml of plasma
liver [8] = settings: human, maximum compatible dose corresponding to about 7 g of iodine/70 kg; cited from earlier work
[9] = humans; cited from earlier work
[10] = 0.2, 0.35 or 0.5 mmol/kg i.v. infusion

SMILES: CCOc1ccc(CC(CN(CCN(CC(=O)[O-])CC(=O)[O-])CC(=O)[O-])N(CC(=O)[O-])CC(=O)[O-])cc1.[Dy+3].[Na+].[Na+] (stereo not drawn) [Dy]
density (HU ± SD), 50 mmol/L [1]: 226 HU
density (HU ± SD), 500 mmol/L [1]: 1840 HU

SMILES: CCOc1ccc(CC(CN(CCN(CC(=O)[O-])CC(=O)[O-])CC(=O)[O-])N(CC(=O)[O-])CC(=O)[O-])cc1.[Er+3].[Na+].[Na+] (stereo not drawn) [Er]
density (HU ± SD), 50 mmol/L [1]: 254 HU
density (HU ± SD), 500 mmol/L [1]: 1955 HU

SMILES: CCOc1ccc(CC(CN(CC(=O)[O-])CC(Cc2ccc(OCC)cc2)N(CC(=O)[O-])CC(=O)[O-])N(CC(=O)[O-])CC(=O)[O-])cc1.[Na+].[Na+].[Yb+3] (stereo not drawn) [Example 4e, Ytterbium complex of the disodium salt of 3,6,9-triaza-3,6,9-tris-(carboxymethyl)-4,8-bis-(4-ethoxybenzyl)-undecanedioic acid]
LD50 (mice): approximately 15 mmol/kg of body weight

SMILES: CNC(=O)c1c(I)c(NC(=O)COCC(=O)N(C)c2c(I)cc(I)c(C(=O)O)c2I)c(I)c(C(=O)O)c1I [SH L 433]
enhancement of the liver (liver [3]): < 10 HU
enhancement of the liver (liver [4]): > 40 HU
enhancement of the liver (liver [5]): > 40 HU
enhancement of the liver (liver [6]): > 40 HU

SMILES: O=C(COCC(=O)Nc1c(I)cc(I)c(C(=O)O)c1I)Nc1c(I)cc(I)c(C(=O)O)c1I [ioglycamate]
concentration in the liver (fold), at 5 μg of iodine per ml of plasma (liver [7]): 5 -fold
concentration in the liver (fold), at 50 μg of iodine/ml (liver [7]): ~2 -fold
concentration in the liver versus plasma, at 500 μg of iodine/ml (liver [7]): considerably lower than in the plasma

SMILES: O=C(COCCOCCOCC(=O)Nc1c(I)cc(I)c(C(=O)O)c1I)Nc1c(I)cc(I)c(C(=O)O)c1I [iotroxinate]
enhancement in the liver (liver [8]): 15 HU
excreted via the bile ducts [9]: about 90%
concentration in the liver (fold), at 5 μg of iodine per ml of plasma (liver [7]): 5 -fold
concentration in the liver (fold), at 50 μg of iodine/ml (liver [7]): ~2 -fold
concentration in the liver versus plasma, at 500 μg of iodine/ml (liver [7]): considerably lower than in the plasma

Continued, in another order:

density (HU ± SD), 50 mmol/L [1]: 218 HU
density (HU ± SD), 500 mmol/L [1]: 1680 HU
general compatibility ([2]; 0.2, 0.35 or 0.5 mmol/kg i.v. infusion, 15 patients): good
burning sensation at the infusion site or retrograde therefrom (cases) ([2]; persisted for a few seconds or minutes): two
slight increases of aspartate transferase and alaninamino transferase (patients) ([2]; probably caused by the liver metastases): three
evaluation of the laboratory parameters ([2]; serum and urine parameters): no precise trend
SMILES: CCOc1ccc(CC(CN(CCN(CC(=O)[O-])CC(=O)[O-])CC(=O)[O-])N(CC(=O)[O-])CC(=O)[O-])cc1.[Gd+3].[Na+].[Na+] (stereo not drawn) [Gd-EOB-DTPA, gadolinium(III) complex of the 3,6,9-triaza-3,6,9-tris(carboxymethyl)-4-(4-ethoxybenzyl)-undecanedioic acid disodium salt]
Density enhancement of the healthy liver parenchyma, 10 minutes p. inf. (healthy liver parenchyma; 10 minutes after infusion): 19 HU and 12 HU and 10 HU and 18 HU and 15 HU
Density enhancement of the healthy liver parenchyma, 60 minutes p. inf. (healthy liver parenchyma; 60 minutes after infusion): 26 HU and 25 HU and 17 HU and 32 HU
visualization of the metastases, all dose groups (liver metastases; 0.2, 0.35 and 0.5 mmol/kg): improved
CT density of the healthy liver (liver metastases; [10]): dose-dependent increase
CT density of the metastases (liver metastases; [10]): unchanged
visualization of the metastases, two upper dose groups (liver metastases; 0.35 and 0.5 mmol/kg): excellent
visualization of the gallbladder and the bile ducts (liver metastases; after i.v. infusion): possible
additional metastases discovered, on the average (liver metastases; maximum dose (0.5 mmol/kg)): two
average size of the smallest metastases found (liver metastases; maximum dose, decreased from 20.3 mm): 16.6 mm
diameter of additional lesion detected (liver metastases; one patient, left lobe of the liver, previously not found): 7 mm
summary as liver or gallbladder contrast medium for CT (liver metastases; summary statement): well-tolerated and effective
other side effects ([2]; 0.2, 0.35 or 0.5 mmol/kg): nausea and a sensation of pressure in the epigastric region
mild or moderate side effects observed (number) ([2]; 0.2, 0.35 or 0.5 mmol/kg, 15 patients): four

density (HU ± SD), 50 mmol/L [1]: 221 HU
density (HU ± SD), 500 mmol/L [1]: 1890 HU
SMILES: CCOc1ccc(CC(CN(CCN(CC(=O)[O-])CC(=O)[O-])CC(=O)[O-])N(CC(=O)[O-])CC(=O)[O-])cc1.[Ho+3].[Na+].[Na+] (stereo not drawn) [Ho]

density (HU ± SD), 50 mmol/L [1]: 228 HU
density (HU ± SD), 500 mmol/L [1]: 1760 HU
SMILES: CCOc1ccc(CC(CN(CCN(CC(=O)[O-])CC(=O)[O-])CC(=O)[O-])N(CC(=O)[O-])CC(=O)[O-])cc1.[Na+].[Na+].[Tb+3] (stereo not drawn) [Tb]

density (HU ± SD), 50 mmol/L [1]: 252 HU
density (HU ± SD), 500 mmol/L [1]: 1980 HU
SMILES: CCOc1ccc(CC(CN(CCN(CC(=O)[O-])CC(=O)[O-])CC(=O)[O-])N(CC(=O)[O-])CC(=O)[O-])cc1.[Na+].[Na+].[Yb+3] (stereo not drawn) [Yb, Ytterbium complex of the disodium salt of 3,6,9-triaza-3,6,9-tris-(carboxymethyl)-4-(4-ethoxybenzyl)-undecanedioic acid]
